According to publication PMC10470319 (iScience, 2023):
“Also recorded” adds a separate entry of the source.

Assays:
SARS-CoV-2 Mpro [1] = molecular target: T1, SARS-CoV-2 Mpro (Severe acute respiratory syndrome coronavirus 2, UniProt P0DTD1); type: biochemical
SARS-CoV-2 [2] = type: cell-based
SARS-CoV-2 Mpro [3] = molecular target: T1, SARS-CoV-2 Mpro; assay: biochemical; conditions: for inhibition of Mpro in the initial screen: 17 μM
SARS-CoV-2 infection = conditions: in vivo; cited from earlier work
SARS-CoV-2 Mpro [4] = molecular target: T1, SARS-CoV-2 Mpro; type: biochemical; remark: listed apart in the source
Calu-3 cells = conditions: cited from earlier work
SARS-CoV-2 [5] = conditions: read-out: IC50 for inhibition of SARS-CoV-2 replication; cited from earlier work

Structure (SMILES) | reversibility of Mpro inhibition on dilution (SARS-CoV-2 Mpro [1]) | inhibition of SARS-CoV-2 replication (in words) (SARS-CoV-2 [2]) | inhibition of Mpro in the initial screen (SARS-CoV-2 Mpro [3]) | inhibition of Mpro activity, mass spectrometry assay (SARS-CoV-2 Mpro [4]) | other results
O=c1c(O)c(-c2cc(O)c(O)c(O)c2)oc2cc(O)cc(O)c12 [Myricetin, reference compound] | irreversible | inhibits SARS-CoV-2 replication | showed inhibition |  | 
O=c1cc(-c2ccccc2)oc2cc(O)c(O)c(O)c12 [Baicalein, reference compound] | reversible | inhibited SARS-CoV-2 infection | showed inhibition |  | body weight after SARS-CoV-2 infection (SARS-CoV-2 infection): prevented reduction in body weight; lung injury resulting from SARS-CoV-2 infection (SARS-CoV-2 infection): decreased lung injury
O=c1cc(-c2ccc(O)c(-c3c(O)cc(O)c4c(=O)cc(-c5ccc(O)cc5)oc34)c2)oc2cc(O)cc(O)c12 [Amentoflavone] | reversible |  |  | completely inhibited | 
O=c1c(-c2c(O)cc(O)c3c(=O)cc(-c4ccc(O)cc4)oc23)c(-c2ccc(O)cc2)oc2cc(O)cc(O)c12 [3,8'-Biapigenin] |  |  |  | completely inhibited | 
O=C1C[C@@H](c2ccccc2)Oc2cc(O)cc(O)c21 [pinocembrin] |  |  |  |  | inhibition of Mpro (in words) (SARS-CoV-2 Mpro [3]): relatively poor inhibition
O=c1cc(-c2ccc(O)cc2)oc2cc(O)cc(O)c12 [apigenin] | reversible | slightly better than baicalein at 50 μM; also recorded: inhibits viral replication at concentrations that are not toxic |  |  | toxicity in cell culture (Vero E6 cells): some toxicity; CC50 (Calu-3 cells): 302 ± 15 µM; IC50 (SARS-CoV-2 Mpro [3]): 20 ± 9 µM; IC50 (SARS-CoV-2 [5]): 5.11 ± 0.26 µM
